Measured values taken from BindingDB's records for patent US20250243194 (Adorx Therapeutics, 2025).
Values belong to the molecule of their own block, whether it stands above or below them.

Tests used:
Test in all cases: Adenosine Receptor Time-Resolved Fluorescence Resonance Energy Transfer (TRFRET) Binding Assay
Adenosine receptor A2a = Adenosine receptor A2a (Homo sapiens, UniProt P29274)
Protocol: (§1) All FRET binding experiments were conducted at room temperature in white 384-well plates, in assay binding buffer containing 1× LabMed (Cisbio, France), 100 μg/mL saponin, 1% DMSO and 0.02% pluronic acid. Binding of the fluorescently labelled Adenosine receptor antagonist XAC (CA200645, FRET acceptor) to terbium-labelled A1, A2a, A2b and A3 adenosine receptors (FRET donors) was detected by time-resolved FRET due to the close proximity of the donor and acceptor in a binding event. To investigate the ability of unlabelled test compounds to bind to Adenosine A1, A2a, A2b and A3 receptors, dose response curves were constructed that determined the ability of a range of concentrations to inhibit the binding of 30 nM CA200645 to the A2b receptor and 100 nM CA200645 to the A1, A2a, and A3 receptor.Serial dilution (1:3 dilutions) of test compounds in neat DMSO and transfer of a 400 nL sample of test compound into the assay plate was carried out using the Mosquito (TTP Labtech, UK). The compound samples were incubated for 2 hours at room temperature with a fixed concentration of CA200645 defined for each receptor (see above) and CHO cell membranes containing the human Adenosine A1 (0.5 μg/well), A2a (0.3 μg/well), A2b (1 μg/well) or A3 (1 μg/well) receptor in 40 μL of assay buffer. Total and non-specific binding of CA200645 was determined in the absence and presence of 10 μM XAC, respectively. Following 2 hours incubation, the level of CA200645 binding was detected on a Pherastar FSX (BMG Labtech, Germany) using standard TR-FRET settings.

Adenosine receptor A1 = biological target: T1, Adenosine receptor A1 (Homo sapiens, UniProt P30542)
T1 sequence (P30542 whole entry): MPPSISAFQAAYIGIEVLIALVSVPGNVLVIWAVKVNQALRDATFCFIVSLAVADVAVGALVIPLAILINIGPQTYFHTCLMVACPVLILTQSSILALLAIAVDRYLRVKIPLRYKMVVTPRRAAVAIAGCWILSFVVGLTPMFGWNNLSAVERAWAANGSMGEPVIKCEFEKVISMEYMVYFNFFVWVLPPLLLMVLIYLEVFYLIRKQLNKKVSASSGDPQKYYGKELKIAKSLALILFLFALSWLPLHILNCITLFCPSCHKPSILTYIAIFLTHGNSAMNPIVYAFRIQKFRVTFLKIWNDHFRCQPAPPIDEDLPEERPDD
Protocol: as §1

Adenosine receptor A2b = biological target: T2, Adenosine receptor A2b (Homo sapiens, UniProt P29275)
T2 sequence (P29275 whole entry): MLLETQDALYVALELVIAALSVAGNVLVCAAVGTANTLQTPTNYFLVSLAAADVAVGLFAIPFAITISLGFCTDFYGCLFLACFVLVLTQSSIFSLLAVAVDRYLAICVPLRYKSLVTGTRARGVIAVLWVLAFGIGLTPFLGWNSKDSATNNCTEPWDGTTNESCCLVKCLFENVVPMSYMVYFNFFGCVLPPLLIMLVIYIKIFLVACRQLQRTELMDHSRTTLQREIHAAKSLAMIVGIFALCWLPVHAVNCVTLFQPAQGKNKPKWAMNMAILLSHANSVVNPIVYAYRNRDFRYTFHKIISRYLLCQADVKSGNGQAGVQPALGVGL
Protocol: as §1

Adenosine receptor A3 = biological target: T3, Adenosine receptor A3 (Homo sapiens, UniProt P0DMS8)
T3 sequence (P0DMS8 whole entry): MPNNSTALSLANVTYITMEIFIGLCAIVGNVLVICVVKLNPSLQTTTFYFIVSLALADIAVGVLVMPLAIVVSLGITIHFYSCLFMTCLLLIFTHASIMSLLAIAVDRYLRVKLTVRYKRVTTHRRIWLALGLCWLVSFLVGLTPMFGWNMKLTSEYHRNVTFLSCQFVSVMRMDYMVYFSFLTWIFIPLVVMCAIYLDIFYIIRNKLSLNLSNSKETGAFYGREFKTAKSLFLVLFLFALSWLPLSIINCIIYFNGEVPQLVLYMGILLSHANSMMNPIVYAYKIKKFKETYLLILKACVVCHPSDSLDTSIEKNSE
Protocol: as §1

Sequence of Adenosine receptor A2a (P29274 whole entry): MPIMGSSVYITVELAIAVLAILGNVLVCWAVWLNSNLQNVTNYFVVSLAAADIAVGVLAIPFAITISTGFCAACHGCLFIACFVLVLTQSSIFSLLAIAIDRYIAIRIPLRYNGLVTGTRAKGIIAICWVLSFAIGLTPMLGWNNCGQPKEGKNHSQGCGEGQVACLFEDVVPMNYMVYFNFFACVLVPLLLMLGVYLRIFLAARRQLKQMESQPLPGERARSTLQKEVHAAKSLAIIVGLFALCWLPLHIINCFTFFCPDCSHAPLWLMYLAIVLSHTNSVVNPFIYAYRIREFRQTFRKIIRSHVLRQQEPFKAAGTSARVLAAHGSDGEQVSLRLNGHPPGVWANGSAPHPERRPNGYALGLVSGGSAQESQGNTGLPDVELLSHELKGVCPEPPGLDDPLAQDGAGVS

Structure (SMILES): Cc1ncnc2ccc(-c3sc(NC(=O)N4CCC(N(C)C)CC4)nc3-c3cccc(C#N)c3)cc12 [US20250243194, Example 7.6]
Ki (Adenosine receptor A2a): 0.55 nM
Ki (Adenosine receptor A1): 62 nM
Ki (Adenosine receptor A2b): 2.5 nM

Structure (SMILES): Cc1ncnc2ccc(-c3sc(NC(=O)N4C[C@@H]5OCCN(C)[C@@H]5C4)nc3-c3cccc(C#N)c3)cc12 [US20250243194, Example 7.20]
Ki (Adenosine receptor A2a): 0.2 nM
Ki (Adenosine receptor A1): 57 nM
Ki (Adenosine receptor A2b): 1.4 nM

Structure (SMILES): Cc1ncnc2ccc(-c3sc(NC(=O)N4CCNCC4)nc3-c3cccc(C#N)c3)cc12 [US20250243194, Example 7.21]
Ki (Adenosine receptor A2a): 0.3 nM
Ki (Adenosine receptor A1): 9 nM
Ki (Adenosine receptor A2b): 1.6 nM

Structure (SMILES): Cc1ncnc2ccc(-c3sc(NC(=O)N4CCN(C)CC4)nc3-c3cccc(C#N)c3)cc12 [US20250243194, Example 7.22]
Ki (Adenosine receptor A2a): 0.42 nM
Ki (Adenosine receptor A1): 20 nM
Ki (Adenosine receptor A2b): 3 nM

Structure (SMILES): Cn1cc(-c2sc(NC(=O)N3CC4(COC4)C3)nc2-c2cccc(C#N)c2)c2cccnc21 [US20250243194, Example 16]
Ki (Adenosine receptor A3): 2130 nM
Ki (Adenosine receptor A2a): 5.17 nM
Ki (Adenosine receptor A1): 122 nM
Ki (Adenosine receptor A2b): 9.8 nM

The next molecules have a lower Ki (Adenosine receptor A2a) than those just listed; values first:

Ki (Adenosine receptor A2a): 0.04 nM
Ki (Adenosine receptor A1): 0.4 nM
Ki (Adenosine receptor A2b): 0.5 nM
Structure (SMILES): Cc1ccnc2ccc(-c3sc(NC(=O)N4CC5(COC5)C4)nc3-c3cccc(C#N)c3)cc12 [US20250243194, Example 11]

Ki (Adenosine receptor A2a): 0.17 nM
Ki (Adenosine receptor A1): 0.2 nM
Ki (Adenosine receptor A2b): 0.8 nM
Structure (SMILES): COc1ncnc2ccc(-c3sc(NC(=O)N4CC5(COC5)C4)nc3-c3cccc(C#N)c3)cc12 [US20250243194, Example 12]
